The source of these data is ChEMBL document CHEMBL1201862, “PubChem BioAssay data set” (2004).

Among the test systems are SK-OV-3; COLO 205; NCI-H522; K562; HOP-62; HOP-92; UACC-257; NCI/ADR-RES; TK-10; RPMI-8226; MDA-MB-435; HL-60; DU-145; MCF7; IGROV-1; OVCAR-4; HCC 2998; SK-MEL-2; RXF 393; UO-31.
Holding throughout (experiment): NCI anticancer screen, dose series, 48 h

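Cells were grown in 96-well plates and exposed to each compound for 48 hours at five concentrations; endpoints were interpolated linearly between bracketing concentrations, or set to the highest concentration if not reached. GI50 = concentration required for 50% inhibition of growth.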 Calls of active or inactive are those of the source. Rule as the data show it: active = GI50 up to about 1.1 µM and inactive = higher. Square brackets hold non-standard residues; d marks the D form. Peptide text beside a SMILES is read from it. Phe(4-Cl) = N[CH](Cc1ccc(Cl)cc1)C(=O)O; 2Nal = N[CH](Cc1ccc2ccccc2c1)C(=O)O; 3Pal = N[CH](Cc1cccnc1)C(=O)O

Take `Cc1ccc(C2SC(=N)Nc3c2c(C)nn3C(=O)c2ccncc2)cc1` (stereo unspecified): the GI50 in the assay on SK-OV-3, in the assay on COLO 205, in the assay on NCI-H522, in the assay with K562, with HOP-62 and with HOP-92 was > 10 µM (inactive) throughout. The GI50 in the assay on UACC-257, in the assay with NCI/ADR-RES, with TK-10, in the assay with RPMI-8226, in the assay on MDA-MB-435 and in the assay on HL-60 was > 10 µM (inactive) throughout. In addition, the GI50 with DU-145, in the assay on MCF7, with IGROV-1, in the assay on OVCAR-4, with HCC 2998 and in the assay with SK-MEL-2 was > 10 µM (inactive) each time. Also, in the assay on RXF 393, the GI50 was > 10 µM (inactive).
`O=C(NCCSSCCNC(=O)/C(Cc1ccc(O)c(Br)c1)=N/O)/C(Cc1ccc(O)c(Br)c1)=N/O` [PSAMMAPLIN A]: the GI50 in the assay on SK-OV-3 was 0.933 µM (active); in the assay on COLO 205, 1.64 µM (inactive); with NCI-H522, 0.682 µM (active); with K562 it was 1.81 µM (inactive); in the assay on HOP-62, 0.885 µM (active); with HOP-92, 4.01 µM (inactive). The GI50 in the assay with UACC-257 was 1.6 µM (inactive); in the assay with NCI/ADR-RES, 1.29 µM (inactive); with TK-10 it was 2.92 µM (inactive); in the assay on RPMI-8226, 1.36 µM (inactive); with MDA-MB-435, 1.51 µM (inactive); with HL-60 it was 0.426 µM (active). Moreover, the GI50 in the assay on DU-145 is 1.89 µM (inactive); with MCF7, 2.02 µM (inactive); with IGROV-1, 1.17 µM (inactive); in the assay with OVCAR-4 it was 3.1 µM (inactive); with UO-31, 1.74 µM (inactive); in the assay with HCC 2998, 2.17 µM (inactive). Moreover, the results for the GI50 in the assay with SK-MEL-2 and in the assay with RXF 393 were 1.1 µM (active) and 0.796 µM (active), respectively.
Consider `COC1C(C)OC(OC2CC(C)(O)Cc3cc4c(c(O)c32)C(=O)c2c(O)cc3c(c2C4=O)OC2OC3(C)C(O)C(N(C)C)C2O)C(OC)C1(C)OC` (stereo unspecified), for which the GI50 with SK-OV-3 is 0.136 µM (active); with COLO 205, 0.0179 µM (active); in the assay on NCI-H522, 0.00447 µM (active); in the assay on K562 it was 0.00438 µM (active); in the assay with HOP-62, 0.0527 µM (active); in the assay on HOP-92, 0.0333 µM (active). In addition, the GI50 was 0.00553 µM (active) in the assay on UACC-257; 2.21 µM (inactive) in the assay on NCI/ADR-RES; 0.00527 µM (active) in the assay on TK-10; 0.015 µM (active) in the assay on RPMI-8226; 0.00102 µM (active) in the assay on MDA-MB-435; 0.00541 µM (active) in the assay on HL-60. Moreover, the GI50 in the assay with DU-145 is 0.000809 µM (active); with MCF7, 0.0331 µM (active); in the assay with IGROV-1 it was 0.0197 µM (active); with OVCAR-4 it was 0.19 µM (active); with UO-31, 0.411 µM (active); with HCC 2998, 0.0342 µM (active). The GI50 in the assay with SK-MEL-2 was 0.0158 µM (active); with RXF 393, 0.00463 µM (active).
As for `COc1cc(Cn2c3c(c4c(C(=O)NCCN(C)C)c(O)ccc42)C(=O)c2ccccc2C3=O)cc(OC)c1`, the GI50 in the assay with SK-OV-3 was 1.94 µM (inactive); in the assay with COLO 205, 1.81 µM (inactive); with NCI-H522, 1.71 µM (inactive); in the assay with K562, 1.37 µM (inactive); in the assay on HOP-62, 2 µM (inactive); in the assay with UACC-257, 1.97 µM (inactive). Further, the GI50 is 2.32 µM (inactive) in the assay with NCI/ADR-RES; 1.61 µM (inactive) in the assay on TK-10; 1.87 µM (inactive) in the assay with RPMI-8226; 1.75 µM (inactive) with MDA-MB-435; 2.04 µM (inactive) in the assay on HL-60; 1.67 µM (inactive) with DU-145. Also, the GI50 in the assay with MCF7 was 2 µM (inactive); in the assay on IGROV-1, 1.73 µM (inactive); in the assay with OVCAR-4 it was 1.71 µM (inactive); with UO-31, 1.71 µM (inactive); with HCC 2998, 1.13 µM (inactive); in the assay on SK-MEL-2 it was 1.8 µM (inactive). In the assay with RXF 393, the GI50 was 1.68 µM (inactive).
For `O=C(Nc1nc2ccc([N+](=O)[O-])cc2[n+]([O-])n1)C(F)(F)F`, the GI50 is 4.65 µM (inactive) with COLO 205; 21 µM (inactive) in the assay with NCI-H522; 20 µM (inactive) in the assay with K562; 56.1 µM (inactive) in the assay with HOP-92; 16.9 µM (inactive) in the assay with UACC-257; 32.4 µM (inactive) in the assay on NCI/ADR-RES. Also, the GI50 was 44.2 µM (inactive) in the assay on TK-10; 15 µM (inactive) with RPMI-8226; 17.6 µM (inactive) with MDA-MB-435; 12.9 µM (inactive) with HL-60; 37.9 µM (inactive) with DU-145; 20 µM (inactive) in the assay on MCF7. For the same molecule, the GI50 is 18 µM (inactive) with IGROV-1; 26.3 µM (inactive) in the assay with OVCAR-4; 40.8 µM (inactive) with UO-31; 49.8 µM (inactive) in the assay on HCC 2998; 20.7 µM (inactive) in the assay on SK-MEL-2; 54.8 µM (inactive) in the assay with RXF 393.
With `CC(=O)NC(Cc1ccc2ccccc2c1)C(=O)NC(Cc1ccc(Cl)cc1)C(=O)NC(Cc1cccnc1)C(=O)NC(CO)C(=O)NC(Cc1ccc(O)cc1)C(=O)NC(CCCN=C(N)N)C(=O)NC(CC(C)C)C(=O)NC(CCCN=C(N)N)C(=O)N1CCCC1C(=O)NC(C)C(N)=O` (stereo unspecified) (Ac-[2Nal][Phe(4-Cl)][3Pal]SYRLRPA-NH2; configuration not given here), the GI50 in the assay with COLO 205, in the assay with NCI-H522, with K562, with HOP-62, with HOP-92 and in the assay with UACC-257 was > 100 µM (inactive) each time. For the same molecule, the GI50 in the assay with NCI/ADR-RES is > 100 µM (inactive); in the assay with TK-10 it was > 100 µM (inactive); in the assay on RPMI-8226, > 100 µM (inactive); in the assay on MDA-MB-435, 82.8 µM (inactive); with HL-60, > 100 µM (inactive); with DU-145 it was > 100 µM (inactive). Further, the GI50 in the assay with MCF7, in the assay with IGROV-1, in the assay with OVCAR-4, in the assay with UO-31, in the assay with HCC 2998 and with SK-MEL-2 was > 100 µM (inactive) throughout. Moreover, in the assay with RXF 393, the GI50 was > 100 µM (inactive).
`CCOC(=O)CCC(NC(=O)c1ccc(Nc2nc3ccc(C(F)(F)F)cc3nc2-c2ccccc2)cc1)C(=O)OCC` (stereo unspecified): the GI50 in the assay on COLO 205 is 16.2 µM (inactive); in the assay on NCI-H522, 22.1 µM (inactive); in the assay with K562, 44.2 µM (inactive); in the assay on HOP-62, > 100 µM (inactive); in the assay on HOP-92, 23.9 µM (inactive); in the assay on UACC-257 it was 17.5 µM (inactive). Besides, the GI50 was > 100 µM (inactive) in the assay with NCI/ADR-RES; > 100 µM (inactive) with TK-10; > 84.1 µM (inactive) in the assay on RPMI-8226; 83 µM (inactive) in the assay on MDA-MB-435; > 63.4 µM (inactive) with HL-60; > 100 µM (inactive) in the assay on DU-145. Besides, the GI50 with MCF7 is 40.8 µM (inactive); in the assay with IGROV-1, > 100 µM (inactive); in the assay on OVCAR-4 it was 34.2 µM (inactive); in the assay with UO-31, 31.5 µM (inactive); in the assay on HCC 2998 it was 28 µM (inactive); with SK-MEL-2 it was 19.1 µM (inactive). Moreover, the GI50 in the assay with RXF 393 was 49 µM (inactive).
On to `CC[C@@H]1/C=C/C=C/C[C@H](C)[C@@H](O)[C@@H](C)C(=O)[C@H](C)[C@@H](O)[C@H](C)C(=O)[C@H](C)[C@@H](O)[C@H](C)/C=C/C(=O)O[C@H]2[C@@H](C)[C@@H](CC1)O[C@@]1(CC[C@@H](C)[C@@H](CC(C)O)O1)[C@@H]2C` (stereo partly specified), for which the GI50 was 7.76 µM (inactive) in the assay with SK-OV-3; 0.00408 µM (active) in the assay with COLO 205; 0.0188 µM (active) with NCI-H522; 0.00504 µM (active) with K562; 4.38 µM (inactive) in the assay on HOP-62; 3.25 µM (inactive) in the assay with HOP-92. The GI50 in the assay with UACC-257 was < 0.0025 µM (active); in the assay with NCI/ADR-RES it was 0.596 µM (active); in the assay with TK-10, 0.528 µM (active); in the assay on RPMI-8226, 0.057 µM (active); in the assay on MDA-MB-435, 3.11 µM (inactive); with HL-60 it was 0.00847 µM (active). Further, the GI50 in the assay on DU-145 was 3.37 µM (inactive); in the assay on MCF7 it was 0.00269 µM (active); in the assay on IGROV-1, 4.48 µM (inactive); in the assay with OVCAR-4, 0.057 µM (active); with HCC 2998, 1.78 µM (inactive); in the assay with SK-MEL-2 it was 4.58 µM (inactive). Besides, in the assay with RXF 393, the GI50 was 3.07 µM (inactive).
On to `COC1=CC2C(c3cc4ccccc4n3S(=O)(=O)c3ccccc3)CC1CN2C(=O)OCc1ccccc1` (stereo unspecified), for which the GI50 in the assay with SK-OV-3 is 28.8 µM (inactive); in the assay with COLO 205, 16.4 µM (inactive); in the assay on NCI-H522, 18 µM (inactive); in the assay with K562 it was 33.3 µM (inactive); in the assay on HOP-62, 40.4 µM (inactive); in the assay on UACC-257, 34.8 µM (inactive). Besides, the GI50 with NCI/ADR-RES is 35.7 µM (inactive); in the assay on TK-10 it was 67.1 µM (inactive); with RPMI-8226, 17.2 µM (inactive); with MDA-MB-435 it was 24.2 µM (inactive); with HL-60 it was 16.4 µM (inactive); in the assay with DU-145, 29.2 µM (inactive). The GI50 was 39.9 µM (inactive) in the assay on MCF7; 33.7 µM (inactive) in the assay on IGROV-1; 26.1 µM (inactive) with OVCAR-4; 27.2 µM (inactive) in the assay on UO-31; 36.5 µM (inactive) in the assay with HCC 2998; 23.6 µM (inactive) in the assay on SK-MEL-2. In the assay on RXF 393, the GI50 was 14.4 µM (inactive).
Consider `C/C=C/c1cc2c(cc1O)CC[C@@H]1[C@@H]2CC[C@]2(C)[C@@H](O)CC[C@@H]12`, for which the GI50 with SK-OV-3 is 0.183 µM (active); with COLO 205, 11.7 µM (inactive); in the assay on NCI-H522, < 0.0142 µM (active); in the assay on K562, 0.016 µM (active); with HOP-62 it was 0.0791 µM (active); in the assay on UACC-257, 0.132 µM (active). Also, the GI50 in the assay on NCI/ADR-RES was 0.0246 µM (active); in the assay with TK-10, 14.3 µM (inactive); with RPMI-8226 it was 0.0264 µM (active); in the assay on MDA-MB-435, 0.0102 µM (active); in the assay with HL-60, 0.0183 µM (active); in the assay on DU-145, 0.0849 µM (active). For the same molecule, the GI50 in the assay with MCF7 is 0.171 µM (active); in the assay on IGROV-1 it was 1.96 µM (inactive); in the assay with OVCAR-4, 13.6 µM (inactive); with UO-31, 0.372 µM (active); in the assay with HCC 2998, 0.705 µM (active); in the assay with SK-MEL-2, 1.51 µM (inactive). The GI50 in the assay on RXF 393 is 0.1 µM (active).
